Columns and labels:
Hela cells = test: MTT proliferation assay on HeLa cells; assay type: cell-based; details: Homo sapiens
Method: (§1) MTT assay was then applied at 24 h, 48 h. […] However, all the compounds were active against Bel-7402, HepG2, A549 and HeLa cells to some extent. […] Before we began to design these compounds, we carefully studied these references. […] Hu C T, et al., Wang SY, et al. and Xie B, et al. reported that HepG2 was inhibited by inhibiting c-Met/HGF signaling pathway. […] Further research works on activities are currently under investigation and will be reported in due course. […] Proliferation of cells was evaluated by MTT assay. Cells were inoculated at 1.0 × 10^4 cells/mL with 200 μL in each well of 96-well plate and allowed to adhere to the plates overnight. […] After removal of the medium, cells were treated with 150 μL of DMSO and shaken for 15 min to completely dissolve the formazan crystals. The absorbances at 590 nm of the dissolved solutions were detected using a SpectraMAX190 microplate reader (Molecular Devices, USA).

Bel-7402 cells = test: MTT proliferation assay on Bel-7402 cells; assay type: cell-based; details: Homo sapiens
Method: as §1

HepG2 cells = test: MTT proliferation assay on HepG2 cells; assay type: cell-based; details: Homo sapiens
Method: as §1

A549 cells = test: MTT proliferation assay on A549 cells; assay type: cell-based; details: Homo sapiens
Method: as §1

[1] = target: T1, recombinant human c-Met residues 974-end (Homo sapiens, UniProt P08581); test: Inhibition of c-Met kinase (TR-FRET); assay type: biochemical; details: for inhibition at 0.19 µM / inhibition at 0.39 µM / inhibition at 0.78 µM / inhibition at 1.56 µM / inhibition at 3.12 µM / inhibition at 6.25 µM / inhibition at 12.5 µM / inhibition at 25 µM / inhibition at 50 µM / inhibition at 100 µM: read-out: Inhibitory rate on c-Met kinase; for inhibition at 12.5 µM: 12.50 μM; for IC50: TR-FRET, read-out: IC50 against c-Met kinase; for c-Met Inhibition rate (%): concentration not given
T1 construct: recombinant human c-Met residues 974-end; 6His; purchased Millipore
T1 sequence (P08581 974-1390 limits assumed): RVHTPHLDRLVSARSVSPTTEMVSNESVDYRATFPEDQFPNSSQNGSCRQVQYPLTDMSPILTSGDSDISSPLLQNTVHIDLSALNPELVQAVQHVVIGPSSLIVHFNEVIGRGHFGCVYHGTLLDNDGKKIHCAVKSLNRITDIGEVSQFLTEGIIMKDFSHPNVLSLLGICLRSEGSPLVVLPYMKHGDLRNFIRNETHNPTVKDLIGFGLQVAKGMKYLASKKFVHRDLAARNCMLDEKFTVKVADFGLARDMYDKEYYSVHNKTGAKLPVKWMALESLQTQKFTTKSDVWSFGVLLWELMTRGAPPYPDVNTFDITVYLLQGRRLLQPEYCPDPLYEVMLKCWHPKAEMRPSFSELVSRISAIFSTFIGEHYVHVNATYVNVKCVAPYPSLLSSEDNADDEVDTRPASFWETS
Method: The inhibitions of c-Met kinase were investigated referred to a published literature. The IC50 values were detected using TR-FRET. 50 nM 6 His-tagged recombinant human c-Met residues 974-end (Millipore) was cultured in medium containing 2.5 m mol/L MnCl2, 10 m mol/L MgCl2, 20 m mol/L Tris, 2 m mol/L DTT and 0.01% Tween 20 with 5 m mol/L ATP and 200 n mol/L 5FAM-KKK -[…]-NH2 with 25 μL at room temperature for 60 min. Compounds were made up to 100 μM solutions and were tested with 10 concentration gradients by two times dilutions. Each group was tested for three times Reactions were termined by IMAP stop solution. Plates were incubated for an overnight and analyzed by using AiphaQuest.

Structure (SMILES) | IC50 (Hela cells; 24 h) [µM] | IC50 (Hela cells; 48 h) [µM] | IC50 (Bel-7402 cells; 24 h) [µM] | IC50 (Bel-7402 cells; 48 h) [µM] | IC50 (HepG2 cells; 24 h) [µM] | IC50 (HepG2 cells; 48 h) [µM] | IC50 (A549 cells; 24 h) [µM] | IC50 (A549 cells; 48 h) [µM] | inhibition at 0.19 µM [1] [%] | inhibition at 0.39 µM [1] [%] | inhibition at 0.78 µM [1] [%] | inhibition at 1.56 µM [1] [%] | inhibition at 3.12 µM [1] [%] | inhibition at 6.25 µM [1] [%] | inhibition at 12.5 µM [1] [%] | inhibition at 25 µM [1] [%] | inhibition at 50 µM [1] [%] | inhibition at 100 µM [1] [%] | IC50 [1] [µM] | c-Met Inhibition rate (%) [1] [%]
CC(C)=C1C/C=C(\C)CC/C=C(\C)CC1OC(=O)c1cccc(C)c1 (centres unmarked) [Compound 3c, (3E,7E)-3,7-dimethyl-10-(propan-2-ylidene)cyclodeca-3,7-dien-1-yl-3-methylbenzoate] | 84.1 ± 0.71 | 82.54 ± 0.64 | 75.5 ± 1.05 | 78.55 ± 0.51 | 70.2 ± 0.87 | 67.84 ± 0.48 | 88.52 ± 0.53 | 87.2 ± 0.94 | 33.8 ± 0.45 | 42.6 ± 0.51 | 48 ± 0.62 | 59.6 ± 0.66 | 64.5 ± 0.73 | 70 ± 0.81 | 73.79 ± 0.69 | 78.9 ± 0.87 | 83.7 ± 0.95 | 87.4 ± 1.2 | 0.83 | 47
CC(C)=C1C/C=C(\C)CC/C=C(\C)CC1OC(=O)/C=C\c1ccccc1 (centres unmarked) [Compound 3e, (Z)-(3E,7E)-3,7-dimethyl-10-(propan-2-ylidene)cyclodeca-3,7-dien-1-yl-3-phenylacrylate] | 86.55 ± 0.8 | 88.24 ± 0.84 | 75.9 ± 0.81 | 79.2 ± 0.89 | 72.48 ± 0.64 | 69.98 ± 0.68 | 90.11 ± 0.75 | 88.21 ± 0.81 | 28.28 ± 0.22 | 42.75 ± 0.35 | 48.01 ± 0.39 | 61.4 ± 0.64 | 67.5 ± 0.77 | 70.31 ± 0.59 | 75.7 ± 0.78 | 80 ± 0.91 | 85.3 ± 0.87 | 88.4 ± 0.99 | 0.87 | 41
CC(C)=C1C/C=C(\C)CC/C=C(\C)CC1=O [Compound 1, germacrone, reference compound] | 160.7 ± 1.54 | 168 ± 1.81 | 173.5 ± 1.53 | 177 ± 1.97 | 170 ± 2.07 | 175 ± 1.88 | 180 ± 2.14 | 177 ± 1.87 | 23.4 ± 0.33 | 39.1 ± 0.45 | 47 ± 0.55 | 58.8 ± 0.61 | 65.4 ± 0.67 | 69.2 ± 0.77 | 73.7 ± 0.89 | 77.5 ± 0.97 | 82.1 ± 1.21 | 88 ± 1.01 | 1.15 | 27
CC(C)=C1C/C=C(\C)CC/C=C(\C)CC1OC(=O)c1ccc(C(F)(F)F)cc1 (centres unmarked) [Compound 3d, (3E,7E)-3,7-dimethyl-10-(propan-2-ylidene)cyclodeca-3,7-dien-1-yl-4-(trifluoromethyl)benzoate] | 91.25 ± 0.87 | 93.31 ± 0.9 | 80.1 ± 1.19 | 77.56 ± 0.77 | 74.7 ± 0.99 | 78.85 ± 0.77 | 93.48 ± 0.79 | 95.9 ± 0.97 | 31.56 ± 0.27 | 40.88 ± 0.35 | 47.08 ± 0.44 | 59.03 ± 0.57 | 64.22 ± 0.59 | 69 ± 0.74 | 75.5 ± 0.88 | 80.6 ± 0.84 | 85.4 ± 0.96 | 87.7 ± 0.95 | 0.92 | 38
CC(C)=C1C/C=C(\C)CC/C=C(\C)CC1O (centres unmarked) [Compound 2, (3E,7E)-3,7-dimethyl-10-(propan-2-ylidene)cyclodeca-3,7-dienol] | 157.3 ± 1.47 | 163 ± 1.73 | 167 ± 1.91 | 166 ± 1.83 | 155 ± 1.75 | 161.5 ± 1.32 | 177 ± 1.8 | 185 ± 1.99 | 20 ± 0.27 | 34.9 ± 0.37 | 43.1 ± 0.52 | 55.2 ± 0.61 | 59.88 ± 0.53 | 64.16 ± 0.64 | 69.98 ± 0.59 | 74.21 ± 0.69 | 78.2 ± 0.88 | 81.2 ± 0.94 | 1.77 | 23
CC(C)=C1C/C=C(\C)CC/C=C(\C)CC1OC(=O)c1ccc(C)cc1 (centres unmarked) [Compound 3b, (3E,7E)-3,7-dimethyl-10-(propan-2-ylidene)cyclodeca-3,7-dien-1-yl-4-methylbenzoate] | 83.64 ± 0.73 | 83.78 ± 0.76 | 75.9 ± 0.96 | 74.2 ± 0.83 | 68.2 ± 0.69 | 71.5 ± 0.82 | 84.85 ± 0.71 | 81.9 ± 0.88 | 35.6 ± 0.44 | 46.9 ± 0.51 | 54.47 ± 0.47 | 63.4 ± 0.66 | 67.05 ± 0.59 | 72.56 ± 0.67 | 77.8 ± 0.81 | 81.24 ± 0.77 | 86 ± 0.93 | 88.8 ± 1.11 | 0.56 | 56
CC(=O)OC1C/C(C)=C/CC/C(C)=C/CC1=C(C)C (centres unmarked) [Compound 3a, (3E,7E)-3,7-dimethyl-10-(propan-2-ylidene)cyclodeca-3,7-dien-1-yl-acetate] | 149.3 ± 1.33 | 153 ± 1.65 | 157.3 ± 1.33 | 166.2 ± 1.51 | 147.7 ± 1.47 | 152 ± 1.71 | 162.2 ± 1.55 | 169 ± 1.74 | 26.3 ± 0.37 | 40 ± 0.43 | 47.2 ± 0.57 | 58.5 ± 0.69 | 65 ± 0.74 | 69 ± 0.76 | 74.6 ± 0.81 | 79.3 ± 0.85 | 84.3 ± 0.93 | 86.9 ± 0.97 | 1.06 | 31

— paper PMC5362474 (Oncotarget, 2017)
